The nature of data set [1]: Population pharmacokinetics of oral AS and its metabolite DHA in pregnant and non-pregnant women (NONMEM parent-metabolite model). It counts as in vivo, human.
Description: Women presenting for prenatal care at the clinic were screened for study eligibility if they were between 18 and 40 years of age and at less than 22 weeks gestation, determined by last menstrual period. Women confirmed by ultrasound to be between 8 to 21 weeks gestation (inclusive) were invited to be participants in the study. Women were asked to return between 22 to 26 weeks gestation for screening and enrollment; women not enrolled at 22 to 26 weeks were screened again at 32 to 36 weeks gestation. A cohort of non-pregnant female controls was also enrolled. At the time of enrollment, both the pregnant and non-pregnant subjects had asymptomatic Plasmodium falciparum parasitaemia, with a parasite density between 200 and 300,000 parasite/μL, were HIV seronegative, and were without anaemia (haematocrit >30%) or other major medical problems (e.g. chronic hypertension, diabetes, etc.). Plasmodium falciparum parasite density was assessed though Giemsa staining of thick and thin blood films; slide-positive infections were later PCR-confirmed using DNA extracted from dried blood spots [8].
Blood sampling schedule and sample handling were uniformly applied for pregnant, postpartum, and control subjects. Blood samples were collected in pre-chilled tubes containing potassium oxalate/sodium fluoride. Following collection, tubes were placed on wet ice; within 5 minutes of collection, samples were centrifuged. Immediately following centrifugation, plasma was removed from the cells and transferred into cryovials. The plasma samples were transferred to liquid nitrogen until they could be frozen at or below -80°C in a laboratory freezer; samples were later shipped on dry ice to the Clinical Pharmacokinetics Laboratory at the College of Pharmacy, University of Iowa, where they were stored at -80°C until drug analysis was performed.
The reconstituted extracts were chromatographed isocratically. Mass spectroscopy in positive ion mode was used to detect and quantify the compounds.
Nonlinear mixed effects model building was conducted using NONMEM software version 7 (ICON Development Solutions, Ellicott City, MD) [10] implemented on a Windows XP operating system (Microsoft Corporation, Seattle, WA) with a G95 Fortran compiler (Free Software Foundation, Boston, MA). Monte Carlo importance sampling expectation maximization with interaction (IMP INTER) estimation method was used to fit models. Pdx-Pop 4.0 (ICON Development Solutions, Ellicott City, MD) and Xpose version 4.1.0 (Uppsala University, Uppsala, Sweden) [11] were used in processing NONMEM 7 output. Plots were generated with TIBCO Spotfire S+ version 8.1 (TIBCO Software Inc., Palo Alto, CA) and R version 2.10.0 (Free Software Foundation, Boston, MA).
Simultaneous models were implemented using ADVAN 5.
For data set [2] the following is noted: weak acid; cited from earlier work.
For data set [3] the following is noted: free acid form of AS; cited from earlier work.
Details of data set [4]: method as in Newton et al 31. The settings on record: oral AS, acute falciparum malaria patients, 95% CI 1.02 - 1.64; ref Newton et al 31; cited from earlier work.
Details of data set [5]: method as in Teja-Isavadharm et al 30. The settings on record: oral AS, non-pregnant patients with falciparum malaria, non-compartmental, range 0.70 - 2.70 L/kg; ref Teja-Isavadharm et al 30; cited from earlier work.
On the set-up of data set [6]: method as in McGready et al 5. The settings on record: pregnant women (2nd or 3rd trimester), adjusted for median weight 50 kg, ref McGready et al 5, cited from earlier work.
Setting [7] is: interindividual variability, final model.

Read-outs that look alike come from different tables or passages of the source.

As usually defined, the half-life is how long it takes for the measured level to halve. By pKa is commonly meant the pH at which an ionisable group is half protonated. Turning to `C[C@H]1[C@H](OC(=O)CCC(=O)O)O[C@@H]2O[C@@]3(C)CC[C@H]4[C@H](C)CC[C@@H]1[C@@]24OO3` [AS, artesunate], in data set [1] (female, human, in vivo), the “IIV - V2/F, variance (%CV), estimate” value is given as 0.604 (77.7) and the “IIV - V2/F, variance, bootstrap mean (95% CI)” value is 0.568 (0.253-0.942). Moreover, the half-life in data set [1] (female, human, in vivo, po, 200 mg, AS elimination half-life) is approximately 9.1 min. In addition, in data set [1] (human, in vivo, po, 200 mg), the “CL/F apparent clearance of AS, bootstrap mean (95% CI)” value is 904 (788-1045) L/h and the “CL/F: apparent clearance of AS, estimate” value is reported as 895 L/h. In addition, in data set [2], the pKa was 4.6. For the same compound, the “Solubility of the free acid form” value in data set [3] was 168.2 µg/mL.
Consider `C[C@H]1[C@@H](O)O[C@@H]2O[C@@]3(C)CC[C@H]4[C@H](C)CC[C@@H]1[C@@]24OO3` [DHA, dihydroartemisinin], for which the “DHA volume of distribution” value in data set [4] is given as 1.33 L/kg; in data set [5] it was 1.33 L/kg; in data set [6] (oral AS 4 mg/kg/day, 95% CI 57 - 406 L) it was 231.5 L. Also, the “Oral DHA clearance” value in data set [6] (oral AS 4 mg/kg/day for three days with atovaquone and proguanil, 95% CI 60 - 117 L/h) was 88.5 L/h. The “RV - variance (residual variability), bootstrap mean (95% CI)” value in data set [1] (additive model for log-transformed plasma concentrations, 1000 bootstrap runs) is given as 0.174 (0.129-0.226). In addition, in data set [1] (additive model for log-transformed plasma concentrations, final model), the “RV - variance (residual variability), estimate” value is 0.174. The “CLM/F apparent clearance of DHA, bootstrap mean (95% CI)” value in data set [1] (after 200 mg oral AS, 1000 bootstrap runs, value without the pregnancy covariate (non-pregnant)) is given as 64.2 (55.1-75.2) L/h. For the same compound, the “DHA volume of distribution adjusted for the median weight of the pregnancy and control groups” value in data set [1] (after 200 mg oral AS, current analysis) is reported as 1.58 L/kg. The “CLM/F: apparent clearance of DHA, estimate” value in data set [1] (after 200 mg oral AS, final model NONMEM estimate, value without the pregnancy covariate (non-pregnant)) was 64.0 L/h. Further, the Vd/F in data set [1] (female, human, plasma, po, 200 mg, after 200 mg oral AS, 1000 bootstrap runs, read-out: V3/F apparent volume of distribution of DHA, bootstrap mean (95% CI)) is 92.1 L; in data set [1] (female, human, plasma, po, 200 mg, after 200 mg oral AS, final model NONMEM estimate, read-out: V3/F: apparent volume of distribution of DHA, estimate) it was 91.4 L. Besides, the half-life worked out at 59 min in data set [1] (female, human, plasma, po, 200 mg, after 200 mg oral AS, non-pregnant, read-out: DHA elimination half-life, non-pregnant subjects) and 45 min in data set [1] (female, human, plasma, po, 200 mg, after 200 mg oral AS, pregnant, read-out: DHA elimination half-life, pregnant subjects). Further, the “IIV - CLM/F, variance, bootstrap mean (95% CI)” value in data set [1] (interindividual variability, 1000 bootstrap runs) is given as 0.0711 (0.031-0.113). Also, the “IIV - CLM/F, variance (%CV), estimate” value in data set [1] (setting [7]) is on record as 0.0802 (28.3). Besides, the “IIV - V3/F, variance (%CV), estimate” value in data set [1] (setting [7]) was 0.0790 (28.1). Moreover, the “PREG on CLM/F, bootstrap mean (95% CI)” value in data set [1] (pregnant vs non-pregnant women, 1000 bootstrap runs) is listed as 0.427 (0.197-0.723). Also, in data set [1] (pregnant vs non-pregnant women, final model NONMEM estimate), the “PREG on CLM/F: factor of proportional increase in CLM/F associated with pregnancy, estimate” value is recorded as 0.423. For the same compound, in data set [1] (pregnant vs non-pregnant, significant (p < 0.05) only in first forward addition step, not retained in final model), the “Pregnancy-associated trend towards increased DHA volume of distribution” value was “approximately 37%”. Also, the “DHA clearance in pregnant patients, estimate of the present analysis” value in data set [1] (pregnant, after 200 mg oral AS) is recorded as 91 L/h.

The values are drawn from article PMC3098207 (Malaria Journal, 2011).
